From patent US5068247A, “2-aminopentanoic acid compounds and their use as immunosuppressants” (priority 1989, dated 1991)
Like-named read-outs stand apart in the source and are kept apart here.

Key:
Assay type in all cases: cell-based
[1] = tested on: IL-3 production in PHA-stimulated mouse spleen cells; experiment: suppression of IL-3 production in PHA-stimulated mouse spleen cells; conditions: for inhibition at 0.001 µg/mL / inhibition at 0.01 µg/mL / inhibition at 0.1 µg/mL / inhibition at 1 µg/mL: Mus musculus, 24 h, read-out: Suppression
Procedure: (§1) The suppression of IL-2 and IL-3 production in the mitogen-stimulated mouse spleen cells was examined as follows:
(§2) The spleen was resected from 5- to 8-week-old male C3H/HeN mice, and a single cell suspension of spleen cells was prepared by using the RPMI1640 culture medium. After hemolytic treatment, the concentration of the suspension was adjusted to 10^7 cells/ml by using the RPMI1640 culture medium supplemented with 20% FCS, to which 10 μg/ml of phytohemagglutinin (PHA) was added as mitogen. […] After termination of culture, the supernatant was collected and used as the culture supernatant of PHA-stimulated mouse spleen cells.
The IL-3 activity was assayed as follows:
(§3) IL-3-dependent mouse cell line FDC-P2 cells were suspended in the RPMI1640 culture medium supplemented with 10% FCS to the concentration of 2×10^5 cells/ml. One hundred μl of the cell suspension and 100 μl of the two-fold serial dilution of the culture supernatant of PHA-stimulated mouse spleen cells described above were added to a 96-well flat-bottomed microtest plate. […] The IL-3 activity is expressed in U/ml as the dilution at which the absorbancy measured by MTT method was 50% of the maximum.

[2] = tested on: IL-2 production in PHA-stimulated mouse spleen cells; experiment: suppression of IL-2 production in PHA-stimulated mouse spleen cells; conditions: for inhibition at 0.001 µg/mL / inhibition at 0.01 µg/mL / inhibition at 0.1 µg/mL / inhibition at 1 µg/mL: Mus musculus, 24 h, read-out: Suppression
Procedure: as §1, §2
The IL-2 activity in the culture supernatant of PHA-stimulated mouse spleen cells was assayed as follows:
as §3, with “IL-2 dependent” for “IL-3-dependent”, “CTLL-2” for “FDC-P2”, “30%” for “10%”, “cells” for “cells described above”, “IL-2” for “IL-3”

[3] = tested on: human allogenic MLR (human peripheral blood lymphocytes); experiment: human allogenic MLR-suppressive activity, 3H-thymidine uptake; conditions: for suppressive activity in human allogenic MLR (in words): 1 to 0.0001 μg/ml
Procedure: The human allogenic MLR-suppressive activity was assayed as follows:
Human peripheral blood lymphocytes obtained by Ficoll-Paque density gradient centrifugation of normal human peripheral blood were suspended in the RPMI1640 culture medium supplemented with 10% FCS, placed in a plastic dish, and cultured in an atmosphere of 5% carbon dioxide and 95% air at 37° C. for 2 hours. After termination of culture, the supernatant after gentle pipetting was collected and centrifuged (1000 rpm, for 5 minutes) to obtain plastic-nonadherent cells. The plastic-nonadherent cells were allowed to pass through a nylon-wool column to give nylon-nonadherent cells, and the concentration of the cell suspension was adjusted to 4×10^6 cells/ml by using the RPMI1640 culture medium supplemented with 10% FCS, and used as the responder cell suspension.
The plastic-adherent cells were removed from the plastic dish by vigorous pipetting after addition of phosphate buffered saline (PBS) supplemented with 5% FCS and 0.02% disodium ethylenediaminetetraacetic acid (EDTA). The plastic-adherent cells were treated with 40 μg/ml of mitomycin C at 37° C. for 60 minutes, washed three times, and suspended to the concentration of 4×10^6 cells/ml in the RPMI1640 culture medium supplemented with 10% FCS. The resultant suspension was used as the stimulator cell suspension.
After termination of culture, 37 KBq/well of ^3 H-thymidine was added, and after 18 hours of culture, the cells were harvested by a cell-harvester. The radioactivity incorporated into the cells was measured by a liquid scintillation counter, which was used as an index of blastogenic response of lymphocytes in human allogenic MLR. The suppression of human allogenic MLR was evaluated by calculating the percent suppression by the following formula. [formula]

| Compound | IL-3 activity ([1]; 0.001 μg/ml) [U/ml] | IL-3 activity ([1]; 0.01 μg/ml) [U/ml] | IL-3 activity ([1]; 0.1 μg/ml) [U/ml] | IL-3 activity ([1]; 1 μg/ml) [U/ml] | IL-2 activity ([2]; 0.001 μg/ml) [U/ml] | IL-2 activity ([2]; 0.01 μg/ml) [U/ml] | IL-2 activity ([2]; 0.1 μg/ml) [U/ml] | IL-2 activity ([2]; 1 μg/ml) [U/ml] | 3H-thymidine uptake ([3]; 0.0001 μg/ml, Donor C/Donor D) [cpm] | 3H-thymidine uptake ([3]; 0.001 μg/ml, Donor A/Donor B) [cpm] | 3H-thymidine uptake ([3]; 0.001 μg/ml, Donor C/Donor D) [cpm] | 3H-thymidine uptake ([3]; 0.01 μg/ml, Donor A/Donor B) [cpm] | 3H-thymidine uptake ([3]; 0.01 μg/ml, Donor C/Donor D) [cpm] | 3H-thymidine uptake ([3]; 0.1 μg/ml, Donor A/Donor B) [cpm] | 3H-thymidine uptake ([3]; 0.1 μg/ml, Donor C/Donor D) [cpm] | 3H-thymidine uptake ([3]; 1 μg/ml, Donor A/Donor B) [cpm] | 3H-thymidine uptake ([3]; 1 μg/ml, Donor C/Donor D) [cpm] | suppressive activity in human allogenic MLR (in words) [3] | further results |
| --- | --- | --- | --- | --- | --- | --- | --- | --- | --- | --- | --- | --- | --- | --- | --- | --- | --- | --- | --- |
| CCCCCCC(O)C=CCCCCC=CCC(O)C(O)C(N)(CO)C(=O)O (stereo not drawn) [Example 1] | 34.3 | 27.9 | 12.2 | 10.5 | 13.9 | 6.1 | 3.7 | 2.0 | 20334 | 12137 | 15284 | 7479 | 7232 | 5590 | 5292 | 5613 | 6689 | exhibited suppressive activity in human allogenic MLR in a concentration-dependent manner | inhibition at 0.001 µg/mL ([1]; 0.001 μg/ml): 6.8%; inhibition at 0.01 µg/mL ([1]; 0.01 μg/ml): 24.2%; inhibition at 0.1 µg/mL ([1]; 0.1 μg/ml): 66.8%; inhibition at 1 µg/mL ([1]; 1 μg/ml): 71.5%; inhibition at 0.001 µg/mL ([2]; 0.001 μg/ml): 0%; inhibition at 0.01 µg/mL ([2]; 0.01 μg/ml): 49.6%; inhibition at 0.1 µg/mL ([2]; 0.1 μg/ml): 69.4%; inhibition at 1 µg/mL ([2]; 1 μg/ml): 83.5%; inhibition at 0.0001 µg/mL ([3]; Homo sapiens, Lymphocyte, 0.0001 μg/ml, Donor C/Donor D, read-out: Suppression): 1.4%; inhibition at 0.001 µg/mL ([3]; Homo sapiens, Lymphocyte, 0.001 μg/ml, Donor A/Donor B, read-out: Suppression): 0%; inhibition at 0.001 µg/mL ([3]; Homo sapiens, Lymphocyte, 0.001 μg/ml, Donor C/Donor D, read-out: Suppression): 24.4%; inhibition at 0.01 µg/mL ([3]; Homo sapiens, Lymphocyte, 0.01 μg/ml, Donor A/Donor B, read-out: Suppression): 39.6%; inhibition at 0.01 µg/mL ([3]; Homo sapiens, Lymphocyte, 0.01 μg/ml, Donor C/Donor D, read-out: Suppression): 65.4%; inhibition at 0.1 µg/mL ([3]; Homo sapiens, Lymphocyte, 0.1 μg/ml, Donor A/Donor B, read-out: Suppression): 56.5%; inhibition at 0.1 µg/mL ([3]; Homo sapiens, Lymphocyte, 0.1 μg/ml, Donor C/Donor D, read-out: Suppression): 75.3%; inhibition at 1 µg/mL ([3]; Homo sapiens, Lymphocyte, 1 μg/ml, Donor A/Donor B, read-out: Suppression): 56.3%; inhibition at 1 µg/mL ([3]; Homo sapiens, Lymphocyte, 1 μg/ml, Donor C/Donor D, read-out: Suppression): 68.2% |
| CCCCCCCCCCCCCCCC[C@@H](O)[C@H](O)[C@@](N)(CO)C(=O)O [Example 2] | 26.0 | 13.9 | 11.3 | 7.5 | 12.1 | 7.0 | 6.1 | 3.7 | 15259 | 9258 | 15503 | 8119 | 11263 | 4624 | 7300 | 7130 | 6583 | exhibited suppressive activity in human allogenic MLR in a concentration-dependent manner | inhibition at 0.001 µg/mL [1]: 29.3%; inhibition at 0.01 µg/mL [1]: 62.2%; inhibition at 0.1 µg/mL [1]: 69.3%; inhibition at 1 µg/mL [1]: 79.6%; inhibition at 0.001 µg/mL [2]: 0%; inhibition at 0.01 µg/mL [2]: 42.1%; inhibition at 0.1 µg/mL [2]: 49.6%; inhibition at 1 µg/mL [2]: 69.4%; 3H-thymidine uptake ([3]; 0.00001 μg/ml, Donor C/Donor D): 13909 cpm; inhibition at 10 pg/mL ([3]; Homo sapiens, Lymphocyte, read-out: Suppression, 0.00001 μg/ml, Donor C/Donor D): 31.4%; inhibition at 0.0001 µg/mL ([3]; Homo sapiens, Lymphocyte, read-out: Suppression, 0.0001 μg/ml, Donor C/Donor D): 24.5%; inhibition at 0.001 µg/mL ([3]; Homo sapiens, Lymphocyte, read-out: Suppression, 0.001 μg/ml, Donor A/Donor B): 23.6%; inhibition at 0.001 µg/mL ([3]; Homo sapiens, Lymphocyte, read-out: Suppression, 0.001 μg/ml, Donor C/Donor D): 23.2%; inhibition at 0.01 µg/mL ([3]; Homo sapiens, Lymphocyte, read-out: Suppression, 0.01 μg/ml, Donor A/Donor B): 33.8%; inhibition at 0.01 µg/mL ([3]; Homo sapiens, Lymphocyte, read-out: Suppression, 0.01 μg/ml, Donor C/Donor D): 44.9%; inhibition at 0.1 µg/mL ([3]; Homo sapiens, Lymphocyte, read-out: Suppression, 0.1 μg/ml, Donor A/Donor B): 65.2%; inhibition at 0.1 µg/mL ([3]; Homo sapiens, Lymphocyte, read-out: Suppression, 0.1 μg/ml, Donor C/Donor D): 65%; inhibition at 1 µg/mL ([3]; Homo sapiens, Lymphocyte, read-out: Suppression, 1 μg/ml, Donor A/Donor B): 42.7%; inhibition at 1 µg/mL ([3]; Homo sapiens, Lymphocyte, read-out: Suppression, 1 μg/ml, Donor C/Donor D): 68.7% |
